Test results published in patent US20210069082A1, “SPIROKETALS AND USES THEREOF” (Memorial Sloan-Kettering Cancer Center, priority 2017, published 2021).
Where two headings read alike, the source gives them in different places.

Tests used:
rat mesangial cells [1] = assay: Inhibition of high glucose-induced ROS production in rat mesangial cells (DCFH-DA fluorescence); type: cell-based; settings: for Concentration required for complete inhibition (ROS production reduced to normal levels): high glucose-induced ROS, rat mesangial cells; for IC50: 3 h, DCFH-DA 50 μM, mean of three experiments, s.d. of log IC50 in brackets; for Antioxidant activity against hyperglycemia-induced ROS generation (in words): concomitant treatment with compound plus high glucose for 3 h, DCFDA assay
Protocol: The inhibitory effects of the pyrrolomorpholine spiroketals on high glucose-induced oxidative stress were evaluated in rat mesangial cells (RMC). The rat mesangial cells, obtained from the American Type Culture Collection (CRL-2573), were cultured at 37° C. in Dulbecco's modified Eagle's medium (DMEM) containing 5.6 mM glucose (normal glucose), 10% fetal calf serum (FCS), nonessential amino acids, penicillin/streptomycin under a humidified atmosphere of 95% air and 5% CO2. Rat mesangial cells were seeded in 96-well plates approximately 24 hours before the start of all experiments. For more details on the antioxidant activity assays, see, e.g., Wang et al. Free Radical Biol. Med. 1999, 27, 612-616; Magalhães et al. Anal. Chim. Acta. 2008, 613, 1-19; Peng et al. Org. Lett. 2010, 12, 4932-4935; Hung et al. Am. J. Nephrol. 2009, 29, 192-202.
For each experiment, rat mesangial cells were incubated with pyrrolomorpholine spiroketal compound (0.01, 0.03, 0.1, 0.3, 1, 3, 10, 30, 100, 200 μM) or 1 mM N-acetyl cysteine (NAC, positive control) in the presence of either 5.6 mM (normal glucose, NG) or 30 mM (high glucose, HG) D-glucose for 3 h. RMC were then incubated with 50 μM dichloro-dihydro-fluorescein diacetate (DCFH-DA) for 45 min, and intracellular production of ROS was detected by 2′,7′-dichlorofluorescein (DCF) fluorescence (485 nm excitation, 530 emission) as measured by a microplate reader (SpectraMax M5/M5, Molecular Devices). Values are expressed as percentage of ROS inhibition, where fluorescence from untreated cells under normal glucose conditions was set at 0% and untreated cells under high glucose conditions was set at 100%.

rat mesangial cells [2] = assay: DCFDA assay of ROS levels upon exogenous H2O2 treatment; type: cell-based; settings: 200 μM H2O2, rat mesangial cells
Protocol: Dichlorofluorescin diacetate (DCFDA) assay measured ROS levels upon treatment with 200 μM H2O2.
DCFDA assay measured ROS levels upon treatment with 200 μM H2O2.

rat mesangial cells [3] = settings: cited from earlier work; for Antioxidant activity as reported (in words): high glucose-induced ROS, rat mesangial cells, literature
mesangial cells = settings: through inhibition of NADPH oxidase, literature; cited from earlier work
[4] = Chemical reactivity towards reactive oxygen and nitrogen species; type: physicochemical; settings: equimolar concentrations
[5] = cyclic voltametry, Aponick and coworkers; cited from earlier work
[6] = Rattus norvegicus, Mesangial cell, compound 0-200 μM, high (30 mM) glucose, N-acetyl-cysteine at 1 mM, ***p ≤ 0.001, read-out: Maximum % ROS Inhibition

SMILES: OC[C@H]1O[C@@]2(Cc3ccccc3CO2)C[C@@H]1O (single isomer, unassigned) [desformylbenzene 7]
- inhibition (rat mesangial cells [1]; [6]): 100%
- Concentration required for complete inhibition (ROS production reduced to normal levels) (rat mesangial cells [1]): 5 µM
- Block of the direct effect of exogenous H2O2 on ROS levels (rat mesangial cells [2]): does not block

SMILES: O=CC[C@H](O)[C@H](O)CO [2-deoxy-D-ribose]
- IC50 (rat mesangial cells [1]; Rattus norvegicus, Mesangial cell, compound 0-200 μM, high (30 mM) glucose): > 200 µM

SMILES: O=Cc1ccc2n1C[C@@]1(OC2)O[C@H](CO)[C@@H](O)[C@@H]1O.c1ccccc1 [Acortatarin B, acortatarin B]
- Antioxidant activity as reported (in words) (rat mesangial cells [3]): significantly attenuating high glucose-induced generation of ROS

SMILES: O=Cc1ccc2n1CC1(CC(O)C(CO)O1)OC2 [L-acortatarin A]
- Antioxidant activity against hyperglycemia-induced ROS generation (in words) (rat mesangial cells [1]): inactive

SMILES: CC(=O)N[C@@H](CS)C(=O)O [N-acetyl-cysteine]
- inhibition at 1000 µM (rat mesangial cells [1]; [6]): 100%

SMILES: O=Cc1ccc2n1C[C@]1(C[C@H](O)[C@@H](CO)O1)OC2 [acortatarin A (1), acortatarin A]
- IC50 (rat mesangial cells [1]; compound 0-200 μM, high (30 mM) glucose): 4.9 µM
- Maximum % ROS Inhibition (rat mesangial cells [1]; compound 0-200 μM, high (30 mM) glucose, N-acetyl-cysteine at 1 mM, ***p ≤ 0.001): 100%***
- Antioxidant activity against hyperglycemia-induced ROS generation (in words) (rat mesangial cells [1]): complete inhibition of ROS induction at higher concentrations
- Concentration required for complete inhibition (ROS production reduced to normal levels) (rat mesangial cells [1]): 20 µM
- Block of the direct effect of exogenous H2O2 on ROS levels (rat mesangial cells [2]): does not block
- Effect on high glucose-induced extracellular matrix production (mesangial cells): prevent
- Antioxidant activity as reported (in words) (rat mesangial cells [3]): complete inhibition of ROS induction at higher concentrations
- Antioxidant activity as reported (in words) (rat mesangial cells [3]; listed as Acortatarin A): significantly attenuating high glucose-induced generation of ROS
- IC50 (rat mesangial cells [3]; rat mesangial cell model, intracellular ROS levels, read-out: IC50 against hyperglycemia-induced oxidative stress, as recently reported): 4.9 µM
- Reactivity to equimolar H2O2, OH radical and peroxynitrite [4]: unreactive
- First oxidation potential [5]: +1.74 V
- Second oxidation potential [5]: 1.90 V

SMILES: O=Cc1cccc2c1C[C@]1(C[C@H](O)[C@@H](CO)O1)OC2 [formylbenzene 8, (2S,4S,5R)-4-hydroxy-5-(hydroxymethyl)-4,5-dihydro-3H-spiro[furan-2,3′-isochromane]-5′-carbaldehyde]
- inhibition (rat mesangial cells [1]; [6]): 100%
